From article PMC8744746 (International Journal of Molecular Sciences, 2021)
Values joined by “and” are separate entries in the source; they are usually repeats but may differ in a detail not shown here. Equal entries are not always repeated. “Also recorded” adds a separate entry of the source. Where two headings read alike, the source gives them in different places.

What was measured:
[1] = tested on: HFF cell microtubules; assay: Tubulin immunofluorescence and SFEX quantification of vertebrate microtubules; assay type: cell-based, human; details: at or above the EC50 for oryzalin, clemastine, astemizole; versus vehicle control
Method: Vertebrate sensitivity is assessed using tubulin immunofluorescence to visualize microtubule networks after drug treatment of uninfected human HFF cells in culture (Figure 3A). To quantify microtubule polymer density between treatments, we used the SFEX program [19] to segment and enumerate filaments in a fixed-size region of interest. Treatment with the vertebrate microtubule-depolymerizing colchicine-site ligand combretastatin A4 [32] was used as a positive control to ensure that the SFEX parameters captured partial, as well as total, loss of cytoplasmic microtubules.
HFF cells were seeded subconfluently onto sterile 12-mm circular glass coverslips in 6-well dishes. Cells were grown to semiconfluency (3–4 days). Cultures were exposed to DMSO (vehicle control) and drugs of interest for 60 min at 37 °C. These samples were fixed and permeabilized with ice-cold methanol for 3–5 min and blocked in 10% BSA in Ca^2+, Mg^2+-free PBS at room temperature for 30 min or overnight at 4 °C. […] The open-source software Stress Fiber Extractor 1.0 [19] was used to quantify assembled tubulin (microtubules) present in HFF-cell immunofluorescence images within MATLAB R2015a, using the “Stress Fiber Network” analysis feature. […] Quantitative analysis of the segmented filaments was performed with the Stress Fiber Extractor, with export of data into Excel (Microsoft, Redmond, WA, USA). […]

[2] = tested on: α-tubulin in T. gondii tachyzoites; assay: Immunoblot quantification of α-tubulin protein in tachyzoites; assay type: cell-based, Toxoplasma gondii; details: clemastine-treated tachyzoites (8 μM in Figure 4D); DMSO control 0.022
Text: Parasite equivalents and known concentrations of porcine tubulin standards were resolved by SDS-PAGE for subsequent immunoblot analysis using a broadly cross-reacting α-tubulin monoclonal antibody that recognizes both vertebrate and Toxoplasma tubulin. Band intensity was quantified with ImageJ, and the porcine samples were used to create a standard curve to determine α-tubulin concentration in Toxoplasma samples normalized to parasite equivalents.
The samples were resolved on a 10% SDS-polyacrylamide gel (Bio-Rad) and blotted to nitrocellulose for immunoblot analysis. Blots were probed with a mouse anti-α-tubulin antibody (Sigma T9026; 1:5000) and detected with an IgG anti-mouse secondary antibody conjugated to HRP (Promega, Madison, WI, USA: W4021, 1:10,000). Samples were imaged using a Nikon D700 fitted with a 55 mm f/1.4 Nikkor auto-focus lens and intervening 12 mm Kenko auto-focus extension tube [46]. Exposure times were controlled with a Satechi TRC-B remote shutter control. Band intensity was quantified using ImageJ.

[3] = tested on: RH-GFP T. gondii; details: GFP-expressing parasites per vacuole, tracked up to 36 h
Text: To live image replicating parasites, we used a GFP-expressing Toxoplasma line [29] for invasion assays and replication assays. […] Next, we assessed the effects of the drugs on replication. By adding drug to infected cells after initiating parasite invasion, this assay measures replication independent of any effects on invasion. This methodology may also reveal details induced by drug treatment that are not resolved by the plaque assay, such as changes in parasite shape or acute replication delays. We enumerated the number of GFP-expressing parasites in individual vacuoles at 12-hour intervals over one complete lytic cycle.
HFF cells were grown to confluency in 35 mm coverslip dishes (MatTek, Ashland MA, USA). RH-GFP T. gondii [29] were harvested by filtering freshly lysed parasites. Parasites were diluted 4-fold in D10+ media. After 30 min of invasion at 37 °C, the cell monolayer was washed with PBS to remove extracellular parasites. D10+ media alone, D10+ with DMSO, or drug in DMSO was added to the dishes. Actively growing parasites in fibroblasts were imaged every 12 h over a 48-hour period using a Zeiss Axiovert 200 M and an Axiovision camera to collect 10 random fields of view for each condition. Parasite replication states were manually quantified and tallied to enumerate singlets, doublets, quadruplets, and larger rosettes.

[4] = tested on: RH-GFP parasites; assay type: cell-based, Toxoplasma gondii; details: drugs at their EC50 concentrations, clemastine +/− pretreatment
Method: The red-green invasion assay using GFP-expressing tachyzoites was adapted from the original protocol. HFF cells were grown to confluency on coverslips in 6-well dishes. RH-GFP parasites were harvested from infected host cells by syringe passage through a 27-gauge needle. Tachyzoites were allowed to adhere to host cells for 20 min at 37 °C in a high-potassium “Endo” buffer. The buffer was replaced with warm invasion medium (DMEM + various drug conditions). Parasite invasion occurred under control or drug-treated conditions for 3 min (short invasion time) or 30 min (long invasion time) at 37 °C in a humidified 5% CO2 incubator. After invasion, samples were washed with PBS, fixed with formyl saline without subsequent permeabilization, stained with mouse anti-SAG1 antibody (Invitrogen, Waltham, MA, USA: D61S, 1:1000), and detected with a goat anti-mouse secondary antibody conjugated to Alexa Fluor 594 (Invitrogen A11005, 1:1000). Extracellular, invading, and intracellular parasites were scored from 10 random microscope fields. Invasion was calculated by dividing the number of intracellular parasites by the total number of parasites counted.

[5] = tested on: Toxoplasma tachyzoite subpellicular microtubules; assay: Subpellicular microtubule length in deoxycholate-extracted tachyzoites (ImageJ); assay type: cell-based, Toxoplasma gondii; details: drug-treated tachyzoites versus vehicle controls
Method: In parallel, we assessed the effect of these candidate tubulin-targeting agents on parasite microtubules, also via tubulin immunofluorescence. Because tachyzoite subpellicular microtubules are unusually resistant to detergent extraction due to the association of SPM1 and other stabilizing luminal proteins, these structures can be specifically isolated for analysis. Vehicle- and drug-treated parasites were incubated with deoxycholate, and the extracted subpellicular microtubule arrays were detected with tubulin immunofluorescence (Figure 4A). Images of parasite microtubules were measured using ImageJ.
To measure the length distribution of Toxoplasma tachyzoite subpellicular microtubules in control and treated parasites, we isolated subpellicular microtubule complexes by deoxycholate extraction of freshly lysed tachyzoites. Briefly, RH parasites were treated with DMSO or candidate drugs in culture for 2 days. Following lysis of host cells, extracellular parasites were centrifuged at 1000× g for 20 min at 4 °C and then resuspended in 1 mL of PBS. Parasites were settled onto poly-l-lysine (Sigma)-coated coverslips for 15 min at room temperature. Coverslips were incubated with 10 mg/mL deoxycholate (DOC) in phosphate-buffered saline (PBS) for 10 min to extract the subpellicular microtubule cytoskeleton. Samples were fixed in 3.7% formyl saline (Sigma) at room temperature for 10–15 min, followed by immunostaining for tubulin, as described above. Extracted subpellicular microtubules in immunofluorescence images were measured using ImageJ.

[6] = tested on: Toxoplasma; parameters: method as in PMID 28609444; details: cited from earlier work
[7] = tested on: Toxoplasma RH strain tachyzoites; assay: microbe, parasite or virus in culture; details: 168 h, read-out: EC50, Toxoplasma RH Strain, plaque area relative to control after 7 days in HFF monolayers
[8] = in vitro; details: human
Method: Because replicating cells may be more vulnerable than confluent monolayers, we evaluated survival of both subconfluent (dividing) and confluent (contact-inhibited) HFF cultures after 72 h of exposure to increasing drug concentrations (Supplemental Figure S4). […] Using this information, we calculated the in vitro therapeutic index for these drugs, which is the ratio of the CC50 to the EC50.
For subconfluent monolayers, approximately 5 × 10^4 HFF cells were plated into each well of a 24-well dish and exposed to D10+ media alone or D10+ with DMSO or drug for 3 days. The plates were processed with the In Vitro Toxicology Assay Kit, MTT based (Sigma Aldrich, TOX1), and A570 was measured in a SpectraMax I3X plate reader. Exported data were analyzed using Microsoft Excel. For confluent monolayers, approximately 5 × 10^4 HFF cells were plated into each well of a 24-well dish and grown in D10+ media alone. Once the cells were confluent, they were gently rinsed with PBS, and D10+ with DMSO or drug was added to each well. The plates were processed as above.

[9] = tested on: Toxoplasma RH strain tachyzoites; details: read-out: EC50, Toxoplasma RH Strain; plaque area relative to control after 7 days in HFF monolayers
Method: To assess this, we gauged the therapeutic index by measuring compound EC50 for Toxoplasma tachyzoites grown in vertebrate host cells versus the CC50 for uninfected human foreskin fibroblast (HFF) cells. […] After 1 week of parasite growth, we visualized lytic destruction of crystal violet-stained host cells to reveal macroscopic plaques in the monolayer (Figure 2B). Greyscale images of individual wells were analyzed with the open-source program ImageJ [18] using the “threshold” functionality to differentiate between cells (dark gray) and plaques (white). The program calculates plaque number, average size, and percent total area within the field. The EC50 value is determined by graphing the relationship between compound concentrations and percent total plaque area relative to control cultures. […] HFF cells were grown to confluency in 6-well dishes and infected with 300 tachyzoites/well. Individual wells were treated with varying concentrations of drug, and the plates were left undisturbed for 7 days at 37 °C in a humidified 5% CO2 incubator. […] Greyscale photographic images of the plates were analyzed in ImageJ (NIH, Bethesda, MD, USA) using the “threshold” functionality. Plaque number, average size and percent total area were calculated by the program. […]

| Compound | Effect on vertebrate (HFF) microtubules, in words [1] | Effect on tachyzoite replication [3] | Effect on tachyzoite invasion [4] | Effect on Toxoplasma subpellicular microtubule length, in words [5] | other results |
| --- | --- | --- | --- | --- | --- |
| COc1ccc(/C=C\c2cc(OC)c(OC)c(OC)c2)cc1O [Combretastatin A4, combretastatin A4] | dose-dependent microtubule disassembly |  |  |  |  |
| CN1CCC[C@@H]1CCO[C@](C)(c1ccccc1)c1ccc(Cl)cc1 [Clemastine] |  | No delays in replication are detected at 36 hours; also recorded: did not detect overt slowing of replication | does not affect invasion |  | α-tubulin (pg)/tachyzoite [2]: 0.02 pg/tachyzoite and ~ 0.02 pg/tachyzoite |
| CCc1nc(N)nc(N)c1-c1ccc(Cl)cc1 [Pyrimethamine] |  |  |  | does not reduce microtubule length | Effect on Toxoplasma subpellicular microtubule length, in words ([5]; listed as pyrimethamine): not different to that of the vehicle controls |
| OCCOCCN1CCN(C(c2ccccc2)c2ccc(Cl)cc2)CC1 (stereo not shown) [hydroxyzine] |  |  |  |  | EC50 [6]: 1000 nM |
| Parabulin |  |  |  | significant reduction in microtubule length; also recorded: significant microtubule shortening relative to control samples |  |
| COc1ccc(CCN2CCC(Nc3nc4ccccc4n3Cc3ccc(F)cc3)CC2)cc1 [Astemizole] | do not significantly differ from the vehicle control | No delays in replication are detected at 36 hours; also recorded: did not detect overt slowing of replication | does not affect invasion | smaller but significant decreases in filament length; also recorded: small but significant decrease in microtubule length | EC50 [7]: ~2000 nM; CC50 at 72 h ([8]; HFF CC50 confluent): 18000 nM; CC50 at 72 h ([8]; HFF CC50 subconfluent): 8830 nM; EC50 [9]: 2070 nM |
